Tests used:
[1] = system: male I. argillacearia moths; assay: Field experiment no. 1: captures of male moths in baited Delta traps; assay type: in vivo, Itame argillacearia; settings: 50 μg per constituent, rubber septa in Delta traps, n=10
Experimental: Field Experiments. Two field experiments were conducted during the moth flight season in 2012. Traps were deployed in vegetative lowbush blueberry fields located in Farmington (field experiment no. 1) and Debert (field experiment no. 2), Nova Scotia. Lowbush blueberries are typically produced on a biennial cycle. After harvest, plants are pruned and enter a year-long vegetative phase.
In both field experiments, traps were arranged in a randomized complete block design with ten replicates in the first experiment and six replicates in the second field experiment. Counts of male moths in traps were done twice per week. Trap data were log10 (x+1) transformed to satisfy assumptions of normality and equal variance and were analyzed by ANOVA using Proc Mixed (SAS, 2001). Where significant differences were detected, Fisher's least significant difference (LSD) was used for multiple mean comparisons among treatments.
The first experiment attempted to clarify: (1) whether enantiomers of the tested epoxide compound differed in the ability to attract male I. argillacearia moths; and (2) whether a mixture of the tested epoxide and triene compounds was more attractive to male moths than each constituent alone.
Rubber septa (Wheaton, N.J., USA) loaded with treatments were placed within Delta® traps (Contech, Delta, British Columbia) with sticky inserts to capture moths. Traps were placed approximately 20 m apart (Cantelo et al., 1982; Hillier, 2001; Hillier et al., 2002), and suspended from iron stakes just above the blueberry canopy. The experiment had seven treatments.
Virgin female moths were held in 25 ml plastic Solo™ cups (TRA Cash and Carry, Truro, NS, Canada) perforated with approximately 20 5-mm holes. Traps were in the field from 9-26 Jul. 2012 and were emptied or replaced twice per week during this period.

Itame brunneata = settings: without (Z,Z,Z)-3,6,9-17:H in the mixture; cited from earlier work

CC/C=C\C/C=C\C/C=C\CCCCCCC [(Z,Z,Z)-3,6,9-17:H, Z,Z,Z-3,6,9-heptadecatriene]
captures of male moths in traps (in words) [1]: Very few moths were recovered

CCCCCCC/C=C\C/C=C\C[C@@H]1O[C@@H]1CC (relative stereo) [3R,4S-epoxy-(Z,Z)-6,9-17:H, Z,Z-(3R,4S)-cis-3,4-epoxy-6,9-heptadecadiene]
captures of male moths in traps (in words) [1]: a significant number of moths were found | capture of moths (Itame brunneata): captured

CCCCCCC/C=C\C/C=C\C[C@H]1O[C@H]1CC [3S,4R-epoxy-(Z,Z)-6,9-17:H, Z,Z-(3S,4R)-3,4-epoxy-6,9-heptadecadiene]
captures of male moths in traps (in words) [1]: lack of captured moths
